Measurements taken from patent US11098038B2, “Imidazole-based anticancer agents and derivatives thereof, and methods of making and using same” (The University of Toledo, priority 2017, dated 2021).

Columns and labels:
[1] = tested on: chromosome alignment, centromeres, and spindle body; assay: Fluorescence microscopy of chromosome alignment, centromeres and spindle body; type: cell-based; conditions: cells treated for several hours, FIGS. 8A-8B
From the text: FIGS. 8A-8B: Color images showing effects of compound 25 on chromosome alignment, centromeres, and spindle body. Microtubules that make up the mitotic spindle are detected with an antibody linked to a green fluorophore, which was detected with a fluorescence microscope. Centromeres were detected with a far red fluorophore (they are pseudocolored pink). DNA was detected with Hoechst DNA stain, which is blue.
In normal cells (FIG. 8A, upper two panels), chromosomes line up between the spindle poles at metaphase. In cells treated with compound 25 for several hours (FIG. 8A, lower two panels), cells still enter mitosis but centromeres are found all over the cell (not just in the middle between the poles of the spindle). […] However, when ZM is combined with compound 25, what was observed was a very dramatic disruption of spindle architecture. […] Without wishing to be bound by theory, it is believed that both Aurora B and the targets of compound 25 work in parallel to control tubulin function. When either one is inhibited alone, there is no effect since the other pathway compensates. When both are inhibited, the defect is detected.

DU-145 = assay: NCI 60 screen, DU-145; type: cell-based; conditions: Homo sapiens, Prostatic
Experimental: (§1) The compounds synthesized were tested at the National Cancer Institute (NCI) for anti-proliferative activity in the 60 human tumor cell line assay.

MDA-MB-435 = assay: NCI 60 screen, MDA-MB-435; type: cell-based; conditions: Homo sapiens, Melanoma
Experimental: as §1

UO-31 = assay: NCI 60 screen, UO-31; type: cell-based; conditions: Homo sapiens, Renal
Experimental: as §1

MDA-MB-231/ATCC = assay: NCI 60 screen, MDA-MB-231/ATCC; type: cell-based; conditions: Homo sapiens, Breast
Experimental: as §1

U251 = assay: NCI 60 screen, U251; type: cell-based; conditions: Homo sapiens, U-251, CNS
Experimental: as §1

SK-MEL-2 [2] = assay: NCI 60 screen, SK-MEL-2 (first line); type: cell-based; conditions: Homo sapiens; Melanoma, SK-MEL-2 (first of two lines so named, r37)
Experimental: as §1

SK-MEL-2 [3] = assay: NCI 60 screen, SK-MEL-2 (second line); type: cell-based; conditions: Homo sapiens; Melanoma, SK-MEL-2 (second of two lines so named, r38)
Experimental: as §1

OVCAR-5 = assay: NCI 60 screen, OVCAR-5; type: cell-based; conditions: Homo sapiens, Ovarian
Experimental: as §1

SR = assay: NCI 60 screen, SR; type: cell-based; conditions: Homo sapiens, Leukemia
Experimental: as §1

SNB-75 = assay: NCI 60 screen, SNB-75; type: cell-based; conditions: Homo sapiens, CNS
Experimental: as §1

PC-3 = assay: NCI 60 screen, PC-3; type: cell-based; conditions: Homo sapiens, Prostatic
Experimental: as §1

KM12 = assay: NCI 60 screen, KM12; type: cell-based; conditions: Homo sapiens, Colon
Experimental: as §1

RPMI-8226 = assay: NCI 60 screen, RPMI-8226; type: cell-based; conditions: Homo sapiens, Leukemia
Experimental: as §1

CCRF-CEM = assay: NCI 60 screen, CCRF-CEM; type: cell-based; conditions: Homo sapiens, Leukemia
Experimental: as §1

SK-OV-3 = assay: NCI 60 screen, SK-OV-3; type: cell-based; conditions: Homo sapiens, Ovarian
Experimental: as §1

OVCAR-8 = assay: NCI 60 screen, OVCAR-8; type: cell-based; conditions: Homo sapiens, Ovarian
Experimental: as §1

HT29 = assay: NCI 60 screen, HT29; type: cell-based; conditions: Homo sapiens, HT-29, Colon
Experimental: as §1

LOX IMVI = assay: NCI 60 screen, LOX IMVI; type: cell-based; conditions: Homo sapiens, Melanoma
Experimental: as §1

786-0 = assay: NCI 60 screen, 786-0; type: cell-based; conditions: Homo sapiens, Renal
Experimental: as §1

SF-268 = assay: NCI 60 screen, SF-268; type: cell-based; conditions: Homo sapiens, CNS
Experimental: as §1

OVCAR-4 = assay: NCI 60 screen, OVCAR-4; type: cell-based; conditions: Homo sapiens, Ovarian
Experimental: as §1

MCF7 = assay: NCI 60 screen, MCF7; type: cell-based; conditions: Homo sapiens, Breast
Experimental: as §1

SK-MEL-5 = assay: NCI 60 screen, SK-MEL-5; type: cell-based; conditions: Homo sapiens, Melanoma
Experimental: as §1

M14 = assay: NCI 60 screen, M14; type: cell-based; conditions: Homo sapiens, Melanoma
Experimental: as §1

MOLT-4 = assay: NCI 60 screen, MOLT-4; type: cell-based; conditions: Homo sapiens, Leukemia
Experimental: as §1

HL-60(TB) = assay: NCI 60 screen, HL-60(TB); type: cell-based; conditions: Homo sapiens, Leukemia
Experimental: as §1

HCC-2998 = assay: NCI 60 screen, HCC-2998; type: cell-based; conditions: Homo sapiens, Colon
Experimental: as §1

MALME-3M = assay: NCI 60 screen, MALME-3M; type: cell-based; conditions: Homo sapiens, Melanoma
Experimental: as §1

HCT-116 = assay: NCI 60 screen, HCT-116; type: cell-based; conditions: Homo sapiens, Colon
Experimental: as §1

SW-620 = assay: NCI 60 screen, SW-620; type: cell-based; conditions: Homo sapiens, Colon
Experimental: as §1

UACC-62 = assay: NCI 60 screen, UACC-62; type: cell-based; conditions: Homo sapiens, Melanoma
Experimental: as §1

HS 578T = assay: NCI 60 screen, HS 578T; type: cell-based; conditions: Homo sapiens, Breast
Experimental: as §1

K-562 = assay: NCI 60 screen, K-562; type: cell-based; conditions: Homo sapiens, K562, Leukemia
Experimental: as §1

NCI-322M = assay: NCI 60 screen, NCI-322M; type: cell-based; conditions: Homo sapiens, Non-Small Cell Lung
Experimental: as §1

A498 = assay: NCI 60 screen, A498; type: cell-based; conditions: Homo sapiens, Renal
Experimental: as §1

NCI-460 = assay: NCI 60 screen, NCI-460; type: cell-based; conditions: Homo sapiens, Non-Small Cell Lung
Experimental: as §1

HOP-62 = assay: NCI 60 screen, HOP-62; type: cell-based; conditions: Homo sapiens, Non-Small Cell Lung
Experimental: as §1

RXF393 = assay: NCI 60 screen, RXF393; type: cell-based; conditions: Homo sapiens, RXF 393, Renal
Experimental: as §1

ACHN = assay: NCI 60 screen, ACHN; type: cell-based; conditions: Homo sapiens, Renal
Experimental: as §1

IGROV1 = assay: NCI 60 screen, IGROV1; type: cell-based; conditions: Homo sapiens, IGROV-1, Ovarian
Experimental: as §1

SF-539 = assay: NCI 60 screen, SF-539; type: cell-based; conditions: Homo sapiens, CNS
Experimental: as §1

UACC-257 = assay: NCI 60 screen, UACC-257; type: cell-based; conditions: Homo sapiens, Melanoma
Experimental: as §1

A549/ATCC = assay: NCI 60 screen, A549/ATCC; type: cell-based; conditions: Homo sapiens, Non-Small Cell Lung
Experimental: as §1

SN12C = assay: NCI 60 screen, SN12C; type: cell-based; conditions: Homo sapiens, Renal
Experimental: as §1

TK-10 = assay: NCI 60 screen, TK-10; type: cell-based; conditions: Homo sapiens, Renal
Experimental: as §1

COLO 205 = assay: NCI 60 screen, COLO 205; type: cell-based; conditions: Homo sapiens, Colon
Experimental: as §1

BT-549 = assay: NCI 60 screen, BT-549; type: cell-based; conditions: Homo sapiens, Breast
Experimental: as §1

SNB-19 = assay: NCI 60 screen, SNB-19; type: cell-based; conditions: Homo sapiens, CNS
Experimental: as §1

MDA-MB-468 = assay: NCI 60 screen, MDA-MB-468; type: cell-based; conditions: Homo sapiens, Breast
Experimental: as §1

HOP-92 = assay: NCI 60 screen, HOP-92; type: cell-based; conditions: Homo sapiens, Non-Small Cell Lung
Experimental: as §1

CAKI-1 = assay: NCI 60 screen, CAKI-1; type: cell-based; conditions: Homo sapiens, Renal
Experimental: as §1

OVCAR-3 = assay: NCI 60 screen, OVCAR-3; type: cell-based; conditions: Homo sapiens, Ovarian
Experimental: as §1

NCI-H522 = assay: NCI 60 screen, NCI-H522; type: cell-based; conditions: Homo sapiens, Non-Small Cell Lung
Experimental: as §1

EKVX = assay: NCI 60 screen, EKVX; type: cell-based; conditions: Homo sapiens, Non-Small Cell Lung
Experimental: as §1

T-47D = assay: NCI 60 screen, T-47D; type: cell-based; conditions: Homo sapiens, T47D, Breast
Experimental: as §1

HCT15 = assay: NCI 60 screen, HCT15; type: cell-based; conditions: Homo sapiens, HCT-15, Colon
Experimental: as §1

NCI/ADR-RES = assay: NCI 60 screen, NCI/ADR-RES; type: cell-based; conditions: Homo sapiens, Ovarian
Experimental: as §1

SF-295 = assay: NCI 60 screen, SF-295; type: cell-based; conditions: Homo sapiens, CNS
Experimental: as §1

NCI-H23 = assay: NCI 60 screen, NCI-H23; type: cell-based; conditions: Homo sapiens, Non-Small Cell Lung
Experimental: as §1

NCI-H226 = assay: NCI 60 screen, NCI-H226; type: cell-based; conditions: Homo sapiens, Non-Small Cell Lung
Experimental: as §1

With `COc1cc2c(Nc3ccc(NC(=O)c4ccccc4)cc3)ncnc2cc1OCCCN1CCOCC1` [ZM447439, reference compound] the “Chromosome alignment / centromere position” value [1] was “Many misaligned chromosomes”.

With `O=C(Cc1ccc(/C=C/C(=O)c2ncc[nH]2)cc1)Nc1ccc(C(F)(F)F)cc1` [Compound 24, (E)-2-(4-(3-(1H-imidazole-2-yl)-3-oxoprop-1-en-1-yl)phenyl)-N-(4-(trifluoromethyl)phenyl) acetamide] the GI50 (DU-145) was 2.13 µM, the GI50 (MDA-MB-435) was 2.87 µM and the GI50 (UO-31) was 2.43 µM. The GI50 (MDA-MB-231/ATCC) was 2.79 µM, the GI50 (U251) was 1.22 µM and the GI50 (SK-MEL-2 [2]) was 7.09 µM. For the same compound, the GI50 (SK-MEL-2 [3]) was 5.32 µM, the GI50 (OVCAR-5) was 4.89 µM and the GI50 (SR) was 0.843 µM. It also gave a GI50 (SNB-75) of 3.97 µM, a GI50 (PC-3) of 2.81 µM and a GI50 (KM12) of 1.11 µM. For the same compound, the GI50 (RPMI-8226) was 0.78 µM, the GI50 (CCRF-CEM) was 1.55 µM and the GI50 (SK-OV-3) was 7.66 µM. The GI50 (OVCAR-8) was 7.99 µM, the GI50 (HT29) was 1.09 µM and the GI50 (LOX IMVI) was 0.469 µM. The GI50 (786-0) was 1.4 µM, the GI50 (SF-268) was 3.05 µM and the GI50 (OVCAR-4) was 5.12 µM. It also gave a GI50 (MCF7) of 0.851 µM, a GI50 (SK-MEL-5) of 5.55 µM and a melting point of 240.5 °C. For the same compound, the GI50 (M14) was 2.58 µM, the GI50 (MOLT-4) was 2.29 µM and the GI50 (HL-60(TB)) was 2.03 µM. It also gave a GI50 (HCC-2998) of 3.97 µM, a GI50 (MALME-3M) of 5.18 µM and a GI50 (HCT-116) of 0.694 µM. It also gave a GI50 (SW-620) of 1.35 µM, a GI50 (UACC-62) of 4.47 µM and a GI50 (HS 578T) of 5.88 µM. For the same compound, the GI50 (K-562) was 1.24 µM, the GI50 (NCI-322M) was 4.68 µM and the GI50 (A498) was 4.73 µM. The GI50 (NCI-460) was 3.6 µM, the GI50 (HOP-62) was 4.8 µM and the GI50 (RXF393) was 3.75 µM. It also gave a GI50 (ACHN) of 6.33 µM, a GI50 (IGROV1) of 3.84 µM and a GI50 (SF-539) of 4.52 µM. For the same compound, the GI50 (UACC-257) was 7.2 µM, the GI50 (A549/ATCC) was 6.37 µM and the GI50 (SN12C) was 1.87 µM. The GI50 (TK-10) was 6.63 µM, the GI50 (COLO 205) was 5.38 µM and the GI50 (BT-549) was 2.11 µM. The GI50 (SNB-19) was 2.79 µM, the GI50 (MDA-MB-468) was 1.77 µM and the GI50 (HOP-92) was 4.89 µM. It also gave a GI50 (CAKI-1) of 4.43 µM, a GI50 (OVCAR-3) of 1.09 µM and a GI50 (NCI-H522) of 4.87 µM. For the same compound, the GI50 (EKVX) was 5.57 µM, the GI50 (T-47D) was 3.97 µM and the GI50 (HCT15) was 1.04 µM. It also gave a GI50 (NCI/ADR-RES) of 8.96 µM, a GI50 (SF-295) of 4.08 µM and a GI50 (NCI-H23) of 3.42 µM. The GI50 (NCI-H226) was 6.11 µM.
